In patent US20230014352A1, “INHALED STATINS AS BRONCHODILATORS TO IMPROVE LUNG FUNCTION IN RESPIRATORY DISEASES” (priority 2019, published 2023):
“Also recorded” adds a separate entry of the source. Read-outs that look alike come from different tables or passages of the source.

Columns and labels:
[1] = system: primary human airway smooth muscle (ASM) cells; assay: Contractile force screening (CFS), basal ASM cell contraction (strain energy); type: cell-based; settings: for strain energy (ASM contraction) / basal ASM cell contraction: 24 hours; for strain energy (ASM contraction): compared to pravastatin, FIG. 1C; for basal ASM cell contraction: FIG. 1A/1D
Protocol: Primary human airway smooth muscle (ASM) cells derived from both non-asthmatic and asthmatic donors were obtained from the Gift of Hope Organ and Tissue Donor Network. These cells have been well-characterized previously (see for example H. Yoshie et al., Biophys J (2018) 114(9):2194-99). All measurements were performed using cells at passage 5-8 from three non-asthmatic donors. Cells were grown on either 10% serum-containing F12 complete media, or serum-deprived media supplemented with insulin, transferrin, and selenium (Corning, Tewksbury, Mass.). Contractile Force Screening: Human ASM cells were grown to confluence in 96-well plates on custom NuSilTM 8100 elastic substrates (Avantor, Inc., Radnor, Pa.) (R. […] Fluorescent beads (diameter 400 nm) were embedded in the substrate surface to enable traction force calculations based on their displacements. To measure fractions, an inverted epi-fluorescence microscope (DMI 6000B, Leica Inc., Germany) equipped with a heated chamber (37° C.), a monochrome camera ([…]), and a motorized stage was used. Spatial images were recorded of substrate-embedded fluorescent beads at 10× magnification. Based on the bead displacements (resolution 15 μm) relative to a cell-free model, together with knowledge of substrate stiffness and thickness, fractions were computed using the approach of Fourier Transform Traction Cytometry ([…] et al., Pharmacol Ther (2014) 143(1):87-110), modified to the case of cell monolayers ([…] et al., Cell (2007) 129(3):511-22). From each fraction map, the root-mean-squared traction (RMST) value and strain energy were calculated and reported as a measure of normal contraction in the monolayer. On a well-by-well basis, the ratio of the strain energy after vs. before treatment was computed, and all values of a given treatment group were normalized to the mean of each treatment group. Comparison of Statins: […] MA is the immediate product of HMGCR action on HMB-CoA, so addition of MA would reverse the effect of statin inhibition of HMGCR. […] Simvastatin-acid (SA), atorvastatin, pravastatin, and pitavastatin were examined with CFS to determine the dose response of the ASM relaxation effect. […] From each ASM force map, the strain energy (i.e., the energy that is imparted to the substrate by the contractile cells, in pJ) was computed, to represent the average cellular contraction.

[2] = system: ASM cells; assay: Simulated deep breath (stretch-unstretch), cell mapping rheometry and CFS; type: cell-based, human; settings: 10 μM, 30 min
Protocol: Well-defined biaxial stretch (4 sec duration, 10% magnitude) was imposed using the method of cell mapping rheometry. The strain energy from each ASM force map was computed as a metric of average cellular contraction, and reported as fold changes to the pre-stretch baseline value.
Normal ASM was treated with pitavastatin (1 μM, 24 hrs, n=7), isoproterenol (10 μM, 30 min, n=6) or vehicle (n=7), and examined by CFS as described above. […] Shown are contraction values normalized to the untreated control group. […] The contraction force gradually recovered over 180 seconds. […] All data are reported as mean and standard error of the mean (SEM).

[3] = system: precision-cut human lung slices; assay: Histamine-induced bronchoconstriction in precision-cut human lung slices, pitavastatin and isoproterenol; settings: 30 μM for 30 min after histamine 10 μM 15 min; FIG. 13
Protocol: The experiment was performed under serum-deprived media conditions, n=3-7 airways per group. Changes in lumen narrowing were reported as percentage changes (±SEM) of the pre-treatment state (see FIG. 13). The absolute value of lumen airway area was not statistically different between the pitavastatin and control groups at the pre-treatment state.

[4] = system: ASM cells; assay: RealTime-Glo Annexin V Apoptosis and Necrosis assay; type: cell-based, human
Protocol: Lack of apoptosis: Some studies have shown that statins at high enough doses can reduce the viability of vascular smooth muscle cells, epithelial cells, and endothelial cells (S. Ghavami et al., Biochim Biophys Acta (2014) 1843(7):1259-71; T. P. Miettinen et al., Cell Rep (2015) 13(11):2610-20).
RealTime-Glo™ Annexin V Apoptosis and Necrosis assay was performed by growing ASM cells on 96-well white cell culture plate according to the manufacturer's instructions (Promega Inc). […] In this real-time annexin V binding assay, the luminescence signal was detected for apoptosis and necrosis was detected with a fluorescence signal by using a SpectraMax® plate reader. […] (20 μg/mL) was used as a positive control (FIG. 2).

[5] = Tissue distribution of inhaled (nebulized) simvastatin, mass spectrometry; settings: day 12, organs collected after euthanasia

CC(C)c1c(C(=O)Nc2ccccc2)c(-c2ccccc2)c(-c2ccc(F)cc2)n1CC[C@@H](O)C[C@@H](O)CC(=O)O [atorvastatin]
strain energy (ASM contraction) ([1]; 2 and 10 μM): significantly (and further) reduce strain energy

CC(C)NCC(O)c1ccc(O)c(O)c1 (centres unmarked) [isoproterenol]
basal ASM contraction compared to untreated controls ([2]; FIG. 12A): significantly inhibited basal ASM contraction
augmentation of stretch-induced ASM force relaxation ([2]; FIG. 12B): not conferred; also recorded: notably absent
histamine (Hist)-induced bronchoconstriction [3]: reduced

CC[C@H](C)C(=O)O[C@H]1C[C@H](O)C=C2C=C[C@H](C)[C@H](CC[C@@H](O)C[C@@H](O)CC(=O)O)[C@H]21 [pravastatin]
apoptosis and necrosis (cell death) [4]: no evidence of apoptosis or cell death
strain energy (ASM contraction) ([1]; 0.4 μM): no effect

CC(C)c1nc(N(C)S(C)(=O)=O)nc(-c2ccc(F)cc2)c1/C=C/[C@@H](O)C[C@@H](O)CC(=O)O [rosuvastatin]
apoptosis and necrosis (cell death) [4]: no evidence of apoptosis or cell death
basal ASM cell contraction ([1]; 1 μM): little to no effect

CCC(C)(C)C(=O)O[C@H]1C[C@@H](C)C=C2C=C[C@H](C)[C@H](CC[C@@H](O)C[C@@H](O)CC(=O)O)[C@H]21 [simvastatin acid]
dose-dependent effect on ASM ([1]; primary ASM cells from three different human donors, FIG. 3): dose-dependently relax ASM
start of ASM relaxing effects ([1]; time-dependent effects, FIG. 4C): 4 h

CCC(C)(C)C(=O)O[C@H]1C[C@@H](C)C=C2C=C[C@H](C)[C@H](CC[C@@H]3C[C@@H](O)CC(=O)O3)[C@H]21 [simvastatin]
apoptosis and necrosis (cell death) ([4]; statin doses tested, FIGS. 2B-E): no evidence of apoptosis or cell death
tissue distribution [5]: mostly present in the mainstem bronchi and the lower lobes
basal ASM cell contraction ([1]; 1 μM): more potent
ASM contraction over time compared to control ([1]; 1 μM, serum-deprived media, FIG. 10B): reduced ASM contraction time-dependently
